How the values were obtained:
HIV IN = HIV IN (Human immunodeficiency virus type 1 group M subtype B, UniProt P12497); conditions: previous studies; cited from earlier work
ASV IN = ASV IN (Rous sarcoma virus subgroup C, UniProt P03354, K1536E/R1446K/V1381A); conditions: previous studies; cited from earlier work
HIV IN (F181T) dimer = molecular target: T1, HIV IN (F181T) dimer (Human immunodeficiency virus type 1 group M subtype B, UniProt P12497, F1328T); test: FRET multimerization assay (reaching dimer formation); type: binding; conditions: each at 1 μM; HIV IN (F181T) at 2 μM; relative to untreated control
T1 construct: made in house
Method: The effects of monoclonal antibodies and four small molecule inhibitors (each at 1 μM) are shown.
A multimerization assay based on fluorescence resonance energy transfer (FRET) between donor and acceptor dyes attached to C280 in HIV IN was used. The F181T substitution was introduced in order to monitor reaching dimer formation specifically (see Table 1 and FIGS. 9 and 11). One preparation was labeled with a donor fluorophore (Cy3) and a second with the acceptor (Cy5). Upon mixing (final conc. IN between 0.5 to 2 μM) and equilibration, the FRET efficiency obtained is consistent with the expected apparent distance of 60-65 Å in a reaching dimer. The Z′ factor of 0.7 obtained with this assay is in the “excellent” range for high throughput screening, and additional adjustments (e.g., use of alternative dye pairs, filter changes) may allow us to improve sensitivity even further. To validate the assay, the effects of monoclonal antibodies specific for the CTD (mAb33) or NTD (mAb17) of HIV IN were tested (FIG. 31). […] These preliminary results support the notion that compounds that either stabilize or block reaching dimer formation can result in inhibition of catalysis by IN.

ASV IN, sequence (P03354 1281-1566 V1381A/R1446K/K1536E): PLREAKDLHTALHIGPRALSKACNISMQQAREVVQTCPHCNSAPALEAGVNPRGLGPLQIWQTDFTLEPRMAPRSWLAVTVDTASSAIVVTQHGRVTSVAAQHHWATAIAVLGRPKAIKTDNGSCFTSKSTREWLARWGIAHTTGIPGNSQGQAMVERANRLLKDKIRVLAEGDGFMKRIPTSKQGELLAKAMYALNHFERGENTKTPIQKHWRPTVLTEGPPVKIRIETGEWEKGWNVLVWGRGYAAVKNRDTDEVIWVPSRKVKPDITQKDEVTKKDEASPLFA

**Q.** For 2BrNSA, which “inhibition of HIV IN” value (HIV IN) is on record?
**A.** robust inhibition

**Q.** And the “inhibition of ASV IN” value (ASV IN)?
**A.** robust inhibition

B1: mAb17: monoclonal antibody specific for the NTD of HIV IN; single chain Fv sequence SEQ ID NO:195 (protein, listed as Mus musculus)
scFv: MKYLLPTAAAGLLLLAAQPAMAMGHHHHHHHHHHSSGHIDDDDKHMDVWLTQTPLSLPVSLGDQASISCRSSQTFVHSDGNTYLEWYLQKPGQSPKLLIYKISNRFSGVPDRFSGSGSGTDFTLKISGVEAEDLGLYYCFQGSHVPFTFGSGTKLEIRRADAAPTVSIFPPSSKLGPGGGGSGGGGSGGGGSELGRSQVQLQQSGAELVRPGASVTLSCKASGYTFIEYEMHWVKQAPVHGLEWIGAVDPETGGTAYNQKFKGKAILTADKSSSTGYMELRSLTSESSAVYYCARQGLGYWGQGTLVTVSA
**Q.** With B1 as the molecule, how does the “effect on FRET-monitored IN self-association (reaching dimer formation)” value (HIV IN (F181T) dimer) read?
**A.** inhibit FRET-monitored self-association

B2: mAb33: monoclonal antibody specific for the CTD of HIV IN; single chain Fv sequence SEQ ID NO:194 (protein, listed as Mus musculus)
scFv: MKYLLPTAAAGLLLLAAQPAMAMGHHHHHHHHHHSSGHIDDDDKHMDIQMTQSPSSLSASLGGKVTITCKASQDIYKYIAWYQHKPGKGPRLLIHYTSTLQPGIPSRFSGSGSGRDYSFSISNLEPEDIATYYCLQYDNLWTFGGGTKLEIKRADAAPTVSIFPPSSKLGPGGGGSGGGGSGGGGSELGRSEVKLVESGGGLVKPGGSLKLSCAASGFSFSSYAMSWVRQTPEKRLEWVASISSGGNTYYPDSVKGRFTISRDNARNILYLQMSSLRSEDTAMYYCARLDTTVEGDWYFDVWGAGTTLTVSS
**Q.** With B2 as the molecule, how does the “effect on FRET-monitored IN self-association (reaching dimer formation)” value (HIV IN (F181T) dimer) read?
**A.** inhibit FRET-monitored self-association

Reference: US9533040B2, “Inhibition of human immunodeficiency virus integrase reaching dimer formation utilizing single-chain variable antibodies” (priority 2010, dated 2017)
